# In patent US8952024B2, “Herbicidal pyrimidone derivatives” (E I du Pont de Nemours and Company, priority 2009, dated 2015):
# What was measured:
# Type in all cases: in vivo
# [1] = test system: barnyardgrass (Echinochloa crus-galli); test: Test E flooded paddy rice and weeds; conditions: applied to paddy water, 21 days
# Text: (§1) Three plastic pots (ca. 16-cm diameter) for each application were partially filled with sterilized Tama silt loam soil comprising a 35:50:15 ratio of sand, silt and clay and 2.6% organic matter. Separate plantings for each of the three pots were as follows. Seeds from the U.S. of ducksalad (Heteranthera limosa), sedge (smallflower umbrella sedge, Cyperus difformis), ricefield bulrush (Scirpus mucronatus) and redstem (purple redstem, Ammannia coccinea), were planted into one 16-cm pot for each rate. Seeds from the U.S. of flatsedge (rice flatsedge, Cyperus iria), sprangletop (bearded (i.e. Brdd.) sprangletop, Leptochloa fascicularis), one stand of 9 or 10 water seeded rice seedlings (Oryza sativa cv. ‘Japonica—M202’), and two stands of 3 or 4 transplanted rice seedlings (Oryza sativa cv. ‘Japonica—M202’) were planted into one 16-cm pot for each rate. Seeds from the U.S. of barnyardgrass (Echinochloa crus-galli), late watergrass (Echinochloa oryzicola), early watergrass (Echinochloa oryzoides) and junglerice (Echinochloa colona) were planted into one 16-cm pot for each rate. Plantings were sequential so that crop and weed species were at the 2.0 to 2.5-leaf stage at time of treatment.
# (§2) Potted plants were grown in a greenhouse with day/night temperature settings of 30/27° C., and supplemental balanced lighting was provided to maintain a 16-hour photoperiod. Test pots were maintained in the greenhouse until test completion.
# (§3) At time of treatment, test pots were flooded to 3 cm above the soil surface, treated by application of test compounds directly to the paddy water, and then maintained at that water depth for the duration of the test. Effects of treatments on rice and weeds were visually evaluated by comparison to untreated controls after 21 days. Plant response ratings, summarized in Table E, are based on a scale of 0 to 100 where 0 is no effect and 100 is complete control. A dash (-) response means no test result.
# [2] = test system: ducksalad (Heteranthera limosa); test: Test E flooded paddy rice and weeds; conditions: applied to paddy water, 21 days, scale 0 to 100
# Text: as §1, §2, §3
# [3] = test system: early watergrass (Echinochloa oryzoides); test: Test E flooded paddy rice and weeds; conditions: applied to paddy water, 21 days, scale 0 to 100
# Text: as §1, §2, §3
# [4] = test system: flatsedge (rice flatsedge, Cyperus iria); test: Test E flooded paddy rice and weeds; conditions: applied to paddy water, 21 days, scale 0 to 100
# Text: as §1, §2, §3
# [5] = test system: junglerice (Echinochloa colona); test: Test E flooded paddy rice and weeds; conditions: applied to paddy water, 21 days, scale 0 to 100
# Text: as §1, §2, §3
# [6] = test system: late watergrass (Echinochloa oryzicola); test: Test E flooded paddy rice and weeds; conditions: applied to paddy water, 21 days, scale 0 to 100
# Text: as §1, §2, §3
# [7] = test system: redstem (purple redstem, Ammannia coccinea); test: Test E flooded paddy rice and weeds; conditions: applied to paddy water, 21 days, scale 0 to 100
# Text: as §1, §2, §3
# [8] = test system: ricefield bulrush (Scirpus mucronatus); test: Test E flooded paddy rice and weeds; conditions: applied to paddy water, 21 days, scale 0 to 100
# Text: as §1, §2, §3
# [9] = test system: sedge (smallflower umbrella sedge, Cyperus difformis); test: Test E flooded paddy rice and weeds; conditions: applied to paddy water, 21 days, scale 0 to 100
# Text: as §1, §2, §3
# [10] = test system: sprangletop (bearded (i.e. Brdd.) sprangletop, Leptochloa fascicularis); test: Test E flooded paddy rice and weeds; conditions: applied to paddy water, 21 days, scale 0 to 100
# Text: as §1, §2, §3
# [11] = test system: transplanted rice seedlings (Oryza sativa cv. ‘Japonica—M202’); test: Test E flooded paddy rice and weeds; conditions: applied to paddy water, 21 days, scale 0 to 100
# Text: as §1, §2, §3
# [12] = test system: water seeded rice seedlings (Oryza sativa cv. ‘Japonica—M202’); test: Test E flooded paddy rice and weeds; conditions: applied to paddy water, 21 days, scale 0 to 100
# Text: as §1, §2, §3
# [13] = test system: blackgrass (Alopecurus myosuroides); test: Test C plant response; conditions: Preemergence, scale 0 to 100
# [14] = test system: bromegrass (downy bromegrass, Bromus tectorum); test: Test C plant response; conditions: Preemergence, scale 0 to 100
# [15] = test system: deadnettle (henbit deadnettle, Lamium amplexicaule); test: Test C plant response; conditions: Preemergence, scale 0 to 100
# kochia (Kochia scoparia) = test: Test C plant response; conditions: Preemergence, scale 0 to 100
# [16] = test system: spring barley (Hordeum vulgare); test: Test C plant response; conditions: Preemergence, scale 0 to 100
# [17] = test system: wild mustard (Sinapis arvensis); test: Test C plant response; conditions: Preemergence, scale 0 to 100
# [18] = test system: winter barley (Hordeum vulgare); test: Test C plant response; conditions: Preemergence, scale 0 to 100
compound,measurement,setting,value
COc1cccc(-n2c(-c3ccccc3)ncc(C(=O)C3=C(O)CCCC3=O)c2=O)c1 [Compound 19],"Plant response rating, Barnyardgrass, Flood","[1]; 64 g ai/ha, scale 0 to 100",60
same,"Plant response rating, Barnyardgrass, Flood","[1]; 125 g ai/ha, scale 0 to 100",60
same,"Plant response rating, Barnyardgrass, Flood","[1]; 250 g ai/ha, scale 0 to 100",70
same,"Plant response rating, Barnyardgrass, Flood","[1]; 500 g ai/ha, scale 0 to 100 (0 no effect, 100 complete control)",85
same,"Plant response rating, Ducksalad, Flood",[2]; 64 g ai/ha,85
same,"Plant response rating, Ducksalad, Flood",[2]; 125 g ai/ha,95
same,"Plant response rating, Ducksalad, Flood",[2]; 250 g ai/ha,100
same,"Plant response rating, Ducksalad, Flood",[2]; 500 g ai/ha,100
same,"Plant response rating, Watergrass, Early, Flood",[3]; 64 g ai/ha,20
same,"Plant response rating, Watergrass, Early, Flood",[3]; 125 g ai/ha,45
same,"Plant response rating, Watergrass, Early, Flood",[3]; 250 g ai/ha,65
same,"Plant response rating, Watergrass, Early, Flood",[3]; 500 g ai/ha,85
same,"Plant response rating, Flatsedge, Rice, Flood",[4]; 64 g ai/ha,40
same,"Plant response rating, Flatsedge, Rice, Flood",[4]; 125 g ai/ha,40
same,"Plant response rating, Flatsedge, Rice, Flood",[4]; 250 g ai/ha,95
same,"Plant response rating, Flatsedge, Rice, Flood",[4]; 500 g ai/ha,100
same,"Plant response rating, Junglerice, Flood",[5]; 64 g ai/ha,0
same,"Plant response rating, Junglerice, Flood",[5]; 125 g ai/ha,50
same,"Plant response rating, Junglerice, Flood",[5]; 250 g ai/ha,65
same,"Plant response rating, Junglerice, Flood",[5]; 500 g ai/ha,80
same,"Plant response rating, Watergrass, Late, Flood",[6]; 64 g ai/ha,0
same,"Plant response rating, Watergrass, Late, Flood",[6]; 125 g ai/ha,45
same,"Plant response rating, Watergrass, Late, Flood",[6]; 250 g ai/ha,60
same,"Plant response rating, Watergrass, Late, Flood",[6]; 500 g ai/ha,55
same,"Plant response rating, Redstem, Flood",[7]; 64 g ai/ha,0
same,"Plant response rating, Redstem, Flood",[7]; 125 g ai/ha,90
same,"Plant response rating, Redstem, Flood",[7]; 250 g ai/ha,90
same,"Plant response rating, Redstem, Flood",[7]; 500 g ai/ha,85
same,"Plant response rating, Bulrush, Ricefield, Flood",[8]; 64 g ai/ha,50
same,"Plant response rating, Bulrush, Ricefield, Flood",[8]; 125 g ai/ha,70
same,"Plant response rating, Bulrush, Ricefield, Flood",[8]; 250 g ai/ha,70
same,"Plant response rating, Bulrush, Ricefield, Flood",[8]; 500 g ai/ha,75
same,"Plant response rating, Sedge, Umbrella, Flood",[9]; 64 g ai/ha,90
same,"Plant response rating, Sedge, Umbrella, Flood",[9]; 125 g ai/ha,100
same,"Plant response rating, Sedge, Umbrella, Flood",[9]; 250 g ai/ha,100
same,"Plant response rating, Sedge, Umbrella, Flood",[9]; 500 g ai/ha,100
same,"Plant response rating, Sprangletop, Brdd., Flood",[10]; 64 g ai/ha,75
same,"Plant response rating, Sprangletop, Brdd., Flood",[10]; 125 g ai/ha,95
same,"Plant response rating, Sprangletop, Brdd., Flood",[10]; 250 g ai/ha,100
same,"Plant response rating, Sprangletop, Brdd., Flood",[10]; 500 g ai/ha,100
same,"Plant response rating, Rice, Transplanted, Flood",[11]; 64 g ai/ha,0
same,"Plant response rating, Rice, Transplanted, Flood",[11]; 125 g ai/ha,35
same,"Plant response rating, Rice, Transplanted, Flood",[11]; 250 g ai/ha,40
same,"Plant response rating, Rice, Transplanted, Flood",[11]; 500 g ai/ha,65
same,"Plant response rating, Rice, Water Seeded, Flood",[12]; 64 g ai/ha,0
same,"Plant response rating, Rice, Water Seeded, Flood",[12]; 125 g ai/ha,40
same,"Plant response rating, Rice, Water Seeded, Flood",[12]; 250 g ai/ha,70
same,"Plant response rating, Rice, Water Seeded, Flood",[12]; 500 g ai/ha,95
"O=C1CCCC(O)=C1C(=O)c1cnc(-c2ccccc2)n(-c2ccccc2)c1=O [Compound 2, 5-[(2-hydroxy-6-oxo-1-cyclohexen-1-yl)carbonyl]-2,3-diphenyl-4(3H)-pyrimidinone]",Plant response rating: Blackgrass,[13]; 62 g ai/ha,0
same,Plant response rating: Blackgrass,[13]; 125 g ai/ha,0
same,Plant response rating: Blackgrass,[13]; 16 g ai/ha,0
same,Plant response rating: Blackgrass,[13]; 31 g ai/ha,0
same,"Plant response rating: Bromegrass, Downy",[14]; 62 g ai/ha,0
same,"Plant response rating: Bromegrass, Downy",[14]; 125 g ai/ha,0
same,"Plant response rating: Bromegrass, Downy",[14]; 16 g ai/ha,0
same,"Plant response rating: Bromegrass, Downy",[14]; 31 g ai/ha,0
same,Plant response rating: Deadnettle,[15]; 62 g ai/ha,95
same,Plant response rating: Deadnettle,[15]; 125 g ai/ha,98
same,Plant response rating: Deadnettle,[15]; 16 g ai/ha,0
same,Plant response rating: Deadnettle,[15]; 31 g ai/ha,75
same,Plant response rating: Kochia,kochia (Kochia scoparia); 62 g ai/ha,30
same,Plant response rating: Kochia,kochia (Kochia scoparia); 125 g ai/ha,90
same,Plant response rating: Kochia,kochia (Kochia scoparia); 16 g ai/ha,5
same,Plant response rating: Kochia,kochia (Kochia scoparia); 31 g ai/ha,5
same,"Plant response rating: Barley, Spring",[16]; 62 g ai/ha,0
same,"Plant response rating: Barley, Spring",[16]; 125 g ai/ha,0
same,"Plant response rating: Barley, Spring",[16]; 16 g ai/ha,0
same,"Plant response rating: Barley, Spring",[16]; 31 g ai/ha,0
same,"Plant response rating: Mustard, Wild",[17]; 62 g ai/ha,5
same,"Plant response rating: Mustard, Wild",[17]; 125 g ai/ha,35
same,"Plant response rating: Mustard, Wild",[17]; 16 g ai/ha,0
same,"Plant response rating: Mustard, Wild",[17]; 31 g ai/ha,0
same,"Plant response rating: Barley, Winter",[18]; 62 g ai/ha,0
same,"Plant response rating: Barley, Winter",[18]; 125 g ai/ha,0
same,"Plant response rating: Barley, Winter",[18]; 16 g ai/ha,0
same,"Plant response rating: Barley, Winter",[18]; 31 g ai/ha,0
